Results from patent US12540164B2, “Peptides for treatment and prevention of nonalcoholic fatty liver disease and fibrosis” (UNIVERSITE DE STRASBOURG, priority 2017, dated 2026).
Entries after “also recorded” stand apart in the source; their conditions may differ. Ends that are not written are not given here.

Assays:
hepatic lipid droplets = test: AdipoRed staining of liver sections (lipid droplets); format: in vivo; conditions: 3 months after one unique injection in adipose tissue; DIO male mice; AdipoRed/DAPI cryosections
Description: (§1) Mice presented were euthanized and their plasma and organs were sampled for analysis. […] Cryosection of the livers were then stained with Adipored and DAPI to detect the level of lipid droplets. […] Hepatic function is assessed by two liver related strong biomarkers namely (AST (Aspartate Aminotransferase) and ALT (Alanine Aminotransferase)), whose levels increase proportionately with liver damage.
Livers were isolated and briefly washed in PBS buffer (pH 7.4). after weighing the dried liver, for the liver to body weight ratio, a sliced sample of the liver were then placed in 4% paraformaldehyde (in 0.1M sodium phosphate buffer, pH 7.2) for 15 min, washed in PBS and incubated in AdipoRed dye (1/25; Lonza, Switzerland) with 30 μM DAPI (Sigma-Aldrich, USA) for 15 minutes. After 3 washes with PBS samples were mounted on slides and pictures were taken using Zeiss microscope.

[1] = system: AST (aspartate aminotransferase); test: Plasma AST ELISA; format: in vivo, mice; conditions: 3 months after a single subcutaneous peptide injection, n=4
Description: as §1
(§2) Plasma samples from the indicated mice were used to determine plasma content of either AST (aspartate aminotransferase) or […] (alanine aminotransferase) both robust indicators of liver damage were measured using commercially purchased ELISA kits. These parameters were determined according to manufacturer's procedure. • SEB214Mu (96 Tests): Enzyme-linked Immunosorbent Assay Kit For Aspartate Aminotransferase (AST), Cloud Clone Corp. • SEA207Mu (96 Tests): Enzyme-linked Immunosorbent Assay Kit For Alanine Aminotransferase (ALT), Cloud Clone Corp.

[2] = system: ALT (alanine aminotransferase); test: Plasma ALT ELISA; format: in vivo, mice; conditions: 3 months after a single subcutaneous peptide injection, n=4
Description: as §1, §2

[3] = system: fibrotic depots in the liver; test: Transmitted electron microscopy of liver sections for fibrotic depots; format: in vivo; conditions: DIO-NASH mice, 3 months after injection in subcutaneous adipose tissue
Description: For the electron microscopy imaging on the liver extracts, the samples were immersed in glutaraldehyde (2.5%) and paraformaldehyde (2.5%) in cacodylate buffer (0.1 M, pH 7.4). The samples were post-fixed in 1% osmium tetroxide, dehydrated through graded alcohol (50, 70, 90, and 100%) and propylene oxide for 30 minutes each, and embedded in Epon 812. Semithin sections were cut at 2 μm on an ultra microtome (Leica Ultracut UCT) and ultrathin sections were cut at 70 nm and contrasted with uranyl acetate and lead citrate and examined at 70 kv with a Morgagni 268D electron microscope. Images were captured digitally by Mega View III camera (Soft Imaging System).

Collagen IV = test: Immunostaining of kidney cryosections for Collagen IV; format: in vivo; conditions: DIO(-NASH) mice 3 months post treatment; vs vehicle
From the text: Cryosections of kidneys from DIO vehicle treated and DIO ADPIF treated mice 3 months post treatment, were immunostained for collage IV deposition and tight junction with a ZO-1 antibody to assess the effect of ADPIF peptide on fibrosis progression in other soft tissues. For immunofluorescence experiments, liver and kidneys freshly sampled were included in Optimal Cutting Temperature Compound™ (OCT™, Catalog #4583, Tissue-Tek® OCT™, Sakura® Finetek, Torrance, California, USA) and cryosections of 7 μm were cut with Cryostat Leica CM1950. Cryosections were washed with 1×PBS and fixated in 4% formaldehyde solution for 15 min (Catalog #: F555-4L, Sigma-Aldrich, Saint-Louis, Missouri, USA) and then permeabilized with 0.02% SDS-PBS for 30 seconds. Blocking solution was 5%-Bovine Serum Albumin (BSA) in PBS. Primary antibodies were diluted in blocking solution and incubated overnight and indicated secondary antibodies were diluted in PBS for 30 minutes. Nuclei were counterstained with Hoechst (Catalog #: D1306, Invitrogen, Carlsbad, California, USA). Slides were then mounted with Vectashield® Mounting Medium (Catalog #: H-1000, Vector Laboratories, Burlingame, California, USA). Images were acquired and analyzed with Zeiss Imager.Z2 microscope equipped with either Zeiss AxioVision or Zeiss ZEN 2012 software (Carl Zeiss Inc., Oberkochen, Germany). […]

ALT = test: STAM model of non-alcoholic steatohepatitis: plasma biochemistry (ALT); format: in vivo; conditions: STAM NASH mice, 25 μg per mouse SC once weekly 4-9 wks of age, sacrifice 9 wks; n = 6
Description: NASH was induced in 12 male mice by a single subcutaneous injection of 200 μg streptozotocin (STZ, Sigma-Aldrich, USA) solution 2 days after birth and feeding with high fat diet (HFD, 57 kcal % fat, Cat #HFD32, CLEA Japan, Inc., Japan) after 4 weeks of age. The peptide was administered subcutaneously in the adipose tissue in a volume of […] per mouse. The peptide was administered at a dose of 25 microgram (μg) per mouse once weekly. For plasma biochemistry, non-fasting blood was collected in polypropylene tubes with anticoagulant (Novo-Heparin, Mochida Pharmaceutical Co. Ltd., Japan) and centrifuged at 1,000×g for 15 minutes at 4° C. The supernatant was collected and stored at −80° C. until use. Plasma ALT level was measured by FUJI DRI-CHEM 7000 (Fujifilm, Japan). Six NASH mice were subcutaneously in the adipose tissue administered vehicle supplemented with ADPIF peptide at a dose of […] per mouse once weekly from 4 to 9 weeks of age.

[4] = STAM model of non-alcoholic steatohepatitis: Sirius red staining, fibrosis area; format: in vivo; conditions: STAM NASH mice
Description: NASH was induced in 12 male mice by a single subcutaneous injection of 200 μg streptozotocin (STZ, Sigma-Aldrich, USA) solution 2 days after birth and feeding with high fat diet (HFD, 57 kcal % fat, Cat #HFD32, CLEA Japan, Inc., Japan) after 4 weeks of age. The peptide was administered subcutaneously in the adipose tissue in a volume of […] per mouse. The peptide was administered at a dose of 25 microgram (μg) per mouse once weekly. To visualize collagen deposition, Bouin's fixed liver sections were stained using picro-Sirius red solution (Waldeck, Germany). For quantitative analysis of fibrosis area, bright field images of Sirius red-stained sections were captured around the central vein using a digital camera (DFC295; Leica, Germany) at 200-fold magnification, and the positive areas in 5 fields/section were measured using ImageJ software (National Institute of Health, USA). Six NASH mice were subcutaneously in the adipose tissue administered vehicle supplemented with ADPIF peptide at a dose of […] per mouse once weekly from 4 to 9 weeks of age.

VECTTREKEVLASLDKAAFLTQLHS (not fully specified (bridges)) [ADPIF, R and S carry the stapling, preferably 2-(7-octenyl)arginine and 2-(4-pentenyl)serine]
size of the hepatic lipid droplets (hepatic lipid droplets): clearly showed a decrease; also recorded: global decrease in the sizes of the lipid droplets; also recorded: decrease in the diameter of the lipid droplets
circulating levels of AST [1]: dramatic decrease; also recorded: effective in reducing
circulating levels of ALT [2]: dramatic decrease; also recorded: more active in reducing circulating levels of ALT
fibrotic depots / lesions in liver by transmitted electron microscopy [3]: no longer detected; also recorded: No such fibrotic depots were found
Collagen IV depots in the kidney (immunostaining) (Collagen IV): clear reduction; also recorded: More depots of Collagen IV are observed in the DIO-NASH vehicle than in the ADPIF treated
Plasma ALT (mean ± SD) (ALT): 54 ± 9 U/L
Sirius red-positive area (mean ± SD) ([4]; 25 μg per mouse SC once weekly 4-9 wks of age, sacrifice 9 wks, n = 6): 0.62 ± 0.17%
fibrosis area (Sirius red-positive area) compared with the Vehicle group ([4]; 25 μg per mouse SC once weekly 4-9 wks, Student's t-test): significant decrease
